Reference: patent US11226337B2, “Chemoproteomic profiling of protein electrophilic and oxidative post-translational modifications” (Zenagem, LLC, priority 2017, dated 2022)

Legend:
[1] = target: T1, FTO (Homo sapiens, UniProt Q9C0B1); assay: gel-based RP-ABPP of transfected HEK293T cells; assay type: cell-based; details: transfected HEK293T cells vs mock
T1 construct: Full-length genes encoding three probe 1- and one probe 2-targeted proteins were amplified from a cDNA library; expressed in transfected cells; host or cells: HEK293T
T1 sequence (Q9C0B1 whole entry): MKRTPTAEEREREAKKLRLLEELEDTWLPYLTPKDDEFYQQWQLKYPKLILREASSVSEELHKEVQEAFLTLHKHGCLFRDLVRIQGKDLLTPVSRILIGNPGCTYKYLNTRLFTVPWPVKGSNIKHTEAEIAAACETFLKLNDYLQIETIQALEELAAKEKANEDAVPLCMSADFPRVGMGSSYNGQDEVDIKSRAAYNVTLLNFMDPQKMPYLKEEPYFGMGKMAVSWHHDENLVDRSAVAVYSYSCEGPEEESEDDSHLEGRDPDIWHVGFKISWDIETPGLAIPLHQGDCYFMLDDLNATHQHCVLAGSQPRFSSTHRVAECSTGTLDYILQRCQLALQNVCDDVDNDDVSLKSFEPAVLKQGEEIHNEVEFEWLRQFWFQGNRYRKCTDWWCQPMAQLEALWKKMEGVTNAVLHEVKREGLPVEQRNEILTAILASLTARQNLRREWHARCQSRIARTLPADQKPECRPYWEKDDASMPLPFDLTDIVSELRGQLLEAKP
Protocol: (§1) Soluble proteomes from treated cells were diluted to 1 mg/mL. To each sample (50 μL), a freshly prepared “click” or CuAAC reagent mixture (6 μL) containing 0.1 mM tris(benzyltriazolylmethyl)amine (TBTA) (3 μL/sample, 1.7 mM in 4:1 DMSO:t-BuOH), 1 mM CuSO4 (1 μL/sample, 50 mM in H2O), 25 μM azide-rhodamine (1 μL/sample, 1.25 mM in DMSO), and freshly prepared 1 mM tris(2-carboxyethyl)phosphine (TCEP) (1 μL/sample, 50 mM in PBS or H2O) was added to conjugate the fluorophore to probe-labelled proteins. TBTA was purchased from TCI and azide-rhodamine was synthesized as previously described^64. Upon addition of the click mixture, each reaction was immediately mixed by vortexing and then allowed to react at ambient temperature for 1 hour before quenching the reactions with SDS loading buffer (4× stock, 17 μL). Proteins (˜25 μg total protein loaded per gel lane) were resolved by SDS-PAGE (10% acrylamide) and visualized by in-gel fluorescence scanning on a Hitachi FMBIO-II or BioRad ChemiDoc MP flatbed fluorescence scanner.
(§2) Full-length genes encoding three probe 1- and one probe 2-targeted proteins were amplified from a cDNA library derived from the same low-passage HEK293T cells used for proteomic profiling. The library was generated using Ribozol RNA extraction (Amresco) and iScript reverse transcription (Bio-rad) supermix reagents. The gene products were cloned into mammalian expression vectors containing N- or C-terminal FLAG affinity tags. The gene for S-adenosyl-L-methionine decarboxylase (AMD1 or AdoMetDC) was cloned into pFLAG-CMV-sport6 (N-terminal tag) at NotI and SalI restriction sites. AMD1, Secernin-3 (SCRN3) and fat mass- and obesity-associated Fe(II)- and 20G-dependent dioxygenase (FTO) were cloned into pRK5 (C-terminal tag) at SalI and NotI restriction sites. Kelch-like ECH-associated protein-1 (Keapl) (N-terminal tag), and empty plasmids of pRK5 were gifts. Full sequences of the genes were confirmed. The proteins expressed via transient transfection in HEK293T cells contain an additional 15 amino acids appended to their N-terminal methionine residue or C-terminus (MDYKD4KLKACGR (SEQ ID NO: 43) and A3G4DYKD4K (SEQ ID NO: 44), respectively). The DYKD4K (SEQ ID NO: 42) appendage in each contains the classic FLAG epitope that permits detection by western blotting or purification by affinity chromatography. Mutants of SCRN3 were generated using QuikChange site-directed mutagenesis with primers containing the desired mutations and their respective compliments. The gene for the deletion mutant of SCRN3 with the sequence MetlCys6-SCRN3 instead of Met1 Glu2Pro3Phe4Ser5Cys6-SCRN3 (SEQ ID NO: 45) was amplified from the wild-type C-terminal FLAG-tagged construct and cloned into the same vector.
(§3) HEK293T cells were grown to ˜40% confluence under standard growth conditions passaged in the appropriate media before adding the appropriate expression vector (control cells (‘mock’) received an equal amount of the appropriate empty vector) and polyethyleneimine (PEI) ‘MAX’ (MW 40,000, Polysciences Inc.) as a transfection reagent under standard transfection conditions (3:1 vector/PEI (w/w) ratio). Cells were incubated for ˜48 h before labelling in situ. Proteomes were processed for gel- and MS-based experiments as described above and in Example 2.
(§4) After scanning fluorescence, that same gel was transferred to nitrocellulose membrane in Towbin buffer, the membrane was blocked for ˜1 hour at ambient temperature with 5% nonfat dry milk (w/v) in Tris-buffered saline with Tween 20 (TBST) and incubated with primary antibodies in the same solution overnight at 4° C. The antibodies included anti-FLAG (1:2500, F1804, Sigma), anti-AdoMetDC (1:500, sc-160951, Santa Cruz Biotechnology) and anti-His6 (1:1000, ab18184, Abcam). The blots were washed (3×5 min, TBST), incubated with secondary antibodies (1:10,000, IRDye 800CW, LICOR) in milk for 1 hour at ambient temperature, washed again (3×5 min, TBST), and visualized on a LICOR Odyssey Scanner.

[2] = target: T2, KEAP1 (Homo sapiens, UniProt Q14145); assay: gel-based RP-ABPP of transfected HEK293T cells; assay type: cell-based; details: transfected HEK293T cells vs mock
T2 construct: Full-length genes encoding three probe 1- and one probe 2-targeted proteins were amplified from a cDNA library; expressed in transfected cells; host or cells: HEK293T
T2 sequence (Q14145 whole entry): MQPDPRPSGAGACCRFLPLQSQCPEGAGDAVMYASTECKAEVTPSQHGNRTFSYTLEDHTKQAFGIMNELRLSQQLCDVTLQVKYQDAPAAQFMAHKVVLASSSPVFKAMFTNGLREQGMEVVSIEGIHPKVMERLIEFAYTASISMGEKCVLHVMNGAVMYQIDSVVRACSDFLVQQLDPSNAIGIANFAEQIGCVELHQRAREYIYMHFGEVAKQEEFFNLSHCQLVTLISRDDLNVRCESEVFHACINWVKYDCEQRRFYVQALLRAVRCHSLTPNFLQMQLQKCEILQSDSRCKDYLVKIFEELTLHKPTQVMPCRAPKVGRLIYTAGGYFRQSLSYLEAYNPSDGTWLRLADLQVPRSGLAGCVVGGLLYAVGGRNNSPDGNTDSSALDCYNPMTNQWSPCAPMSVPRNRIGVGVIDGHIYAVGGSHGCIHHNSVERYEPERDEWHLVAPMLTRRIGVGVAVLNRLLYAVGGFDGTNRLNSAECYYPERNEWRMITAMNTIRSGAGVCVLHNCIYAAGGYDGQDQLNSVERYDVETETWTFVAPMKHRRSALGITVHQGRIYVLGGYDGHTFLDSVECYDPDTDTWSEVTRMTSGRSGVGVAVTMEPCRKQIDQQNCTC
Protocol: as §1, §2, §3, §4

[3] = target: T3, SCRN3 (Homo sapiens, UniProt Q0VDG4); assay: gel-based RP-ABPP of transfected HEK293T cells; assay type: cell-based; details: transfected HEK293T cells vs mock
T3 construct: Full-length genes encoding three probe 1- and one probe 2-targeted proteins were amplified from a cDNA library; expressed in transfected cells; host or cells: HEK293T
T3 sequence (Q0VDG4 6-424): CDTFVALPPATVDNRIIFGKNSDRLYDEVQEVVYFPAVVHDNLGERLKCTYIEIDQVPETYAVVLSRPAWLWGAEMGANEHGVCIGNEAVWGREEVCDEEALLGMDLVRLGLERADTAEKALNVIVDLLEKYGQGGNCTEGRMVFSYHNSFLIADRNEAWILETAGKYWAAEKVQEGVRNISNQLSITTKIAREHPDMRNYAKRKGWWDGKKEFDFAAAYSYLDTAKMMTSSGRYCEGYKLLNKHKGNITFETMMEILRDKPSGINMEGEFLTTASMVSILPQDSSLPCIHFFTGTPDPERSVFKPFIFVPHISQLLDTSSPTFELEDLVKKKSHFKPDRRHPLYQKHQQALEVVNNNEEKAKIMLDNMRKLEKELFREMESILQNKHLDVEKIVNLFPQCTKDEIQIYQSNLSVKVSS
Protocol: as §1, §2, §3, §4

[4] = test system: HEK293T and MDA-MB-231 cells; assay: determination of high-reactivity protein targets (SILAC RP-ABPP); assay type: cell-based, human; details: enrichment ratio >5 and competition ratio >4
Protocol: To further eliminate false positives and any stochastic variability in the data, protein ratios were then determined by the median peptide ratio derived from three or more unique quantified peptides. Protein ratios that complied with these criteria from a single experiment were then averaged with ratios acquired from ≥3 replicates to provide final values for each type of experiment in both cell lines with both probes. […] Most importantly, there are no robustly measured ratios for proteins identified as probe 1 targets that had measured ratios of ˜1 with probe 2. […]
Two types of experiments were performed—1) direct enrichment of probe 1-labelled proteins from heavy cells in comparison to light control cells treated with the non-clickable hydrazine (3) at the same concentration as 1 (3 mM for 0.5 h); and 2) competition experiments where both heavy and light cells were treated probe 1, but light cells were also treated with 10× competitor 3 (FIG. 3A)—in two different human cell lines (HEK293T cells and the human breast cancer cell line MDA-MB-231). […] The target list was further refined by requiring that each protein was detected with a minimum of three unique quantified peptides per experiment and by averaging protein ratios across three or more biological replicates per cell line.

SMILES | probe labeling of recombinant protein, in-gel fluorescence [1] | probe labeling of recombinant protein, in-gel fluorescence [2] | probe labeling of recombinant protein, in-gel fluorescence [3] | number of high-reactivity proteins [4]
C#CCNN.Cl [probe 1, prop-2-yn-1-ylhydrazine hydrochloride] | selective reactivity with the aryl probe 2 over the alkyl probe 1 | reacted with both probes 1 and 2 | reacted with both probes 1 and 2 | ten
C#CCCNC(=O)c1ccc(NN)cc1.Cl [probe 2, N-(but-3-yn-1-yl)-4-hydrazinylbenzamide hydrochloride] | preferentially targeted by probe 2 | reacted with both probes 1 and 2 | reacted with both probes 1 and 2 | 33
